Data published in patent US11945822B2, “Pyrazolo-triazine and/or pyrazolo-pxrimidine derivatives as selective inhibitor of cyclin dependent kinase” (QURIENT CO., LTD., priority 2018, dated 2024).

tested on: MV4-11; assay: Cellular MV4-11 viability assay (CellTiter-Glo, 72 hours); type: cell-based; conditions: Homo sapiens
Procedure, shortened: (§1)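 72 h treatment, 37 °C, 5% CO2; DMSO ctrl, final <0.1%; CellTiter-Glo luminescence; n=2.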

Row | IC50 [µM] | Compound
1 | 1 to 10 | CC(C)c1cnn2c(NCc3cccc4ccc(C5CC5)nc34)nc(N3CCC(N)CC3)nc12 [Compound 71]
2 | < 1 | CC(C)c1cnn2c(NCc3ccccc3-c3nccc4cc(NC(=O)CCCN(C)C)ccc34)nc(N3CCC(N)CC3)nc12 [Compound 92]
3 | < 1 | CC(C)c1cnn2c(NCc3ccccc3-c3cc4cccc(F)c4[nH]3)nc(N3CCC(N)CC3)nc12 [Compound 113]
4 | < 1 | CC(C)c1cnn2c(NCc3ccccc3-c3cc4ccccc4[nH]3)nc(OC3CCN(C)CC3)nc12 [Compound 115]

molecular target: T1, CDK7/Cyclin H/MNAT1 (Homo sapiens, UniProt P50613); assay: Enzymatic assay for CDK7 (FRET based LANCE Ultra kinase assay); type: biochemical; conditions: CDK7 over CDK1
T1 construct: purchased Invitrogen PR6749B
T1 sequence (P50613 whole entry): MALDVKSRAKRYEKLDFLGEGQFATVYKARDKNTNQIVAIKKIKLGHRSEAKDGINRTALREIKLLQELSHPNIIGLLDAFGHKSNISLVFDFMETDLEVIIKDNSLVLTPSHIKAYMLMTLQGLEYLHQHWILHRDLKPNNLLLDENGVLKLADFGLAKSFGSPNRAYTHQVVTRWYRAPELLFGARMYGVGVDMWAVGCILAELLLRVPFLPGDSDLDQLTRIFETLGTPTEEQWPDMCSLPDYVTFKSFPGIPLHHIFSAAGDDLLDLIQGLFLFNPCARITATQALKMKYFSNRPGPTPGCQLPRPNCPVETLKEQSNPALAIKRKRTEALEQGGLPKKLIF
T1 sequence (P51946 whole entry partner): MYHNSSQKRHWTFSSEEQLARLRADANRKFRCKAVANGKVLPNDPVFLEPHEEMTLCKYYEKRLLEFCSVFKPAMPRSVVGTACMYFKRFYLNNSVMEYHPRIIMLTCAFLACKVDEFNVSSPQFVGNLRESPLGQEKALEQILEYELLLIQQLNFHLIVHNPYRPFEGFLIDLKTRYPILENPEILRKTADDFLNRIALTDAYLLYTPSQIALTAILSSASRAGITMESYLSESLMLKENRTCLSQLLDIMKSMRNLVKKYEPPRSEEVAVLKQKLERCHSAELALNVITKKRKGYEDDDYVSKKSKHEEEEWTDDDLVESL
T1 sequence (P51948 whole entry partner): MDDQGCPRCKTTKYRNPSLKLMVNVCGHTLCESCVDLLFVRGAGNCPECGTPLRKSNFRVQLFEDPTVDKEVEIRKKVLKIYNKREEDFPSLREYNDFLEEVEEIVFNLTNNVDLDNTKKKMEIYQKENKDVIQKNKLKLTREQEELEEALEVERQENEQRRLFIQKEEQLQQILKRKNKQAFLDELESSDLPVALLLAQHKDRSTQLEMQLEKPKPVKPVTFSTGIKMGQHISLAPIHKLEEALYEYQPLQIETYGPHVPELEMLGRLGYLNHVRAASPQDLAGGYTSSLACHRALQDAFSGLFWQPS
Procedure, shortened: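 LANCE Ultra TR-FRET kinase assay using a ULight-labeled peptide substrate and a Eu-labeled anti-phospho antibody, with ATP at its Km. Purified CDK/cyclin complex was added to compound after brief centrifugation.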

Row | CDK1/CDK7: Selectivity of CDK7 inhibition over CDK1 inhibition | Compound
5 | A (A=greater than 200 fold) | CC(C)c1cnn2c(NCc3ccccc3-c3nccc4cc(NC(=O)CCCN(C)C)ccc34)nc(N3CCC(N)CC3)nc12 [Compound 92]
6 | A (A=greater than 200 fold) | CC(C)c1cnn2c(NCc3ccccc3-c3cc4ccccc4[nH]3)nc(OC3CCN(C)CC3)nc12 [Compound 115]

Row | Compound | CDK1/CDK7: Selectivity of CDK7 inhibition over CDK1 inhibition
7 | CC(C)c1cnn2c(NCc3cccc4ccc(C5CC5)nc34)nc(N3CCC(N)CC3)nc12 [Compound 71] | B (B=less than 200 fold, but greater than 20 fold)

same assay, conditions: CDK7 over CDK2

Row | Compound | CDK2/CDK7: Selectivity of CDK7 inhibition over CDK2 inhibition
8 | CC(C)c1cnn2c(NCc3cccc4ccc(C5CC5)nc34)nc(N3CCC(N)CC3)nc12 [Compound 71] | B (B=less than 200 fold, but greater than 20 fold)
9 | CC(C)c1cnn2c(NCc3ccccc3-c3nccc4cc(NC(=O)CCCN(C)C)ccc34)nc(N3CCC(N)CC3)nc12 [Compound 92] | A (A=greater than 200 fold)
10 | CC(C)c1cnn2c(NCc3ccccc3-c3cc4ccccc4[nH]3)nc(OC3CCN(C)CC3)nc12 [Compound 115] | B (B=less than 200 fold, but greater than 20 fold)

same assay, conditions: CDK7 over CDK5

Row | Compound | CDK5/CDK7: Selectivity of CDK7 inhibition over CDK5 inhibition
11 | CC(C)c1cnn2c(NCc3cccc4ccc(C5CC5)nc34)nc(N3CCC(N)CC3)nc12 [Compound 71] | B (B=less than 200 fold, but greater than 20 fold)
12 | CC(C)c1cnn2c(NCc3ccccc3-c3nccc4cc(NC(=O)CCCN(C)C)ccc34)nc(N3CCC(N)CC3)nc12 [Compound 92] | A (A=greater than 200 fold)
13 | CC(C)c1cnn2c(NCc3ccccc3-c3cc4ccccc4[nH]3)nc(OC3CCN(C)CC3)nc12 [Compound 115] | B (B=less than 200 fold, but greater than 20 fold)

same assay, conditions: read-out: CDK7 enzymatic activity (IC50 range)

Row | IC50 [µM] | Compound
14 | < 0.1 | CC(C)c1cnn2c(NCc3cccc4ccc(C5CC5)nc34)nc(N3CCC(N)CC3)nc12 [Compound 71]
15 | < 0.1 | CC(C)c1cnn2c(NCc3ccccc3-c3nccc4cc(NC(=O)CCCN(C)C)ccc34)nc(N3CCC(N)CC3)nc12 [Compound 92]
16 | < 0.1 | CC(C)c1cnn2c(NCc3ccccc3-c3cc4ccccc4[nH]3)nc(OC3CCN(C)CC3)nc12 [Compound 115]

molecular target: T2, CDK2/Cyclin A (Homo sapiens, UniProt P24941); assay: Enzymatic assay for CDK2 (FRET based LANCE Ultra kinase assay); type: biochemical; conditions: read-out: CDK2 enzymatic activity (IC50 range)
T2 construct: purchased Invitrogen PV6290
Procedure, shortened: (§2)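 TR-FRET (LANCE Ultra) kinase assay at ATP Km, ULight-MBP peptide substrate (68 nM), 8-dose 4-fold compound series in DMSO. Enzymes: […]; 60 min at 23° C., stopped with EDTA plus Eu-anti-phospho-MBP antibody, read 665/615 nm after 60 min.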

Row | IC50 [µM] | Compound
17 | > 1 | CC(C)c1cnn2c(NCc3cccc4ccc(C5CC5)nc34)nc(N3CCC(N)CC3)nc12 [Compound 71]
18 | > 1 | CC(C)c1cnn2c(NCc3ccccc3-c3nccc4cc(NC(=O)CCCN(C)C)ccc34)nc(N3CCC(N)CC3)nc12 [Compound 92]
19 | 0.1 to 1 | CC(C)c1cnn2c(NCc3ccccc3-c3cc4ccccc4[nH]3)nc(OC3CCN(C)CC3)nc12 [Compound 115]

molecular target: T3, CDK1/Cyclin B (Homo sapiens, UniProt P06493); assay: Enzymatic assay for CDK1 (FRET based LANCE Ultra kinase assay); type: biochemical; conditions: read-out: CDK1 enzymatic activity (IC50 range)
T3 construct: purchased Invitrogen PR4768C
T3 sequence (P06493 whole entry): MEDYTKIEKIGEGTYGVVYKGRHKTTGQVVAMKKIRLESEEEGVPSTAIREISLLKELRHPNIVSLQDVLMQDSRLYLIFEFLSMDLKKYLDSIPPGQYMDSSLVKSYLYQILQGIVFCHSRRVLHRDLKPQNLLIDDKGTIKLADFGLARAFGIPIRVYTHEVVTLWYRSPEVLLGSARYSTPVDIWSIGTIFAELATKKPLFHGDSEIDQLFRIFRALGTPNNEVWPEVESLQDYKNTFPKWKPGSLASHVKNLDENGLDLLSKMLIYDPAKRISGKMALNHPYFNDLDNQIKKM
T3 sequence (P14635 whole entry partner): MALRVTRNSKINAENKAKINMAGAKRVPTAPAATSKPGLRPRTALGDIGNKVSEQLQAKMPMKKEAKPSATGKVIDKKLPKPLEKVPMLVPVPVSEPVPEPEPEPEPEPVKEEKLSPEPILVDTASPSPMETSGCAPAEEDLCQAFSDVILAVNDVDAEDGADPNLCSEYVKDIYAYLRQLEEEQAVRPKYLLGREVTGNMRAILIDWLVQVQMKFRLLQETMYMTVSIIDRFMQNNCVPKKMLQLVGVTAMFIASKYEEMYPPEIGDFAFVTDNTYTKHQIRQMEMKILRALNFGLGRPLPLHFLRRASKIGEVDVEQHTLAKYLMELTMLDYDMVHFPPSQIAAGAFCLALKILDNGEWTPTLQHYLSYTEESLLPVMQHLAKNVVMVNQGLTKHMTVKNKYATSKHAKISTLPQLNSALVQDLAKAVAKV
Procedure, shortened: as §2

Row | IC50 [µM] | Compound
20 | > 1 | CC(C)c1cnn2c(NCc3cccc4ccc(C5CC5)nc34)nc(N3CCC(N)CC3)nc12 [Compound 71]
21 | > 1 | CC(C)c1cnn2c(NCc3ccccc3-c3nccc4cc(NC(=O)CCCN(C)C)ccc34)nc(N3CCC(N)CC3)nc12 [Compound 92]
22 | > 1 | CC(C)c1cnn2c(NCc3ccccc3-c3cc4ccccc4[nH]3)nc(OC3CCN(C)CC3)nc12 [Compound 115]

tested on: RPMI-8226; assay: Cellular RPMI-8226 viability assay (CellTiter-Glo, 72 hours); type: cell-based; conditions: Homo sapiens
Protocol: All cell lines were routinely tested for mycoplasma.
The effect of the CDK7 inhibitor to inhibit the growth of target cancer cells was evaluated through the 72 hours time period of viability assay. Briefly, the candidate cell line ware plated in 96 well plate at the following density of cells respectively. […] DMSO solvent without compound served as a control and final DMSO concentration less than 0.1%. After 72 hours of incubation at 37° C., 5% CO2 incubator, cells were analyzed for the viability using the CellTiter-Glo Luminescent Cell Viability Assay (Promega, Cat #G7570). All viability assays were performed in duplicate and Luminescence was read using an Envision (Perkin Elmer, USA). Data was analyzed using XLfit software.

Row | IC50 [µM] | Compound
23 | 1 to 10 | CC(C)c1cnn2c(NCc3cccc4ccc(C5CC5)nc34)nc(N3CCC(N)CC3)nc12 [Compound 71]
24 | 1 to 10 | CC(C)c1cnn2c(NCc3ccccc3-c3nccc4cc(NC(=O)CCCN(C)C)ccc34)nc(N3CCC(N)CC3)nc12 [Compound 92]
25 | < 1 | CC(C)c1cnn2c(NCc3ccccc3-c3cc4cccc(F)c4[nH]3)nc(N3CCC(N)CC3)nc12 [Compound 113]
26 | 1 to 10 | CC(C)c1cnn2c(NCc3ccccc3-c3cc4ccccc4[nH]3)nc(OC3CCN(C)CC3)nc12 [Compound 115]

tested on: MOLT-4; assay: Cellular MOLT-4 viability assay (CellTiter-Glo, 72 hours); type: cell-based; conditions: Homo sapiens, MOLT4 viability assay
Procedure, shortened: as §1

Row | IC50 [µM] | Compound
27 | 1 to 10 | CC(C)c1cnn2c(NCc3cccc4ccc(C5CC5)nc34)nc(N3CCC(N)CC3)nc12 [Compound 71]
28 | > 10 | CC(C)c1cnn2c(NCc3ccccc3-c3nccc4cc(NC(=O)CCCN(C)C)ccc34)nc(N3CCC(N)CC3)nc12 [Compound 92]
29 | < 1 | CC(C)c1cnn2c(NCc3ccccc3-c3cc4cccc(F)c4[nH]3)nc(N3CCC(N)CC3)nc12 [Compound 113]
30 | 1 to 10 | CC(C)c1cnn2c(NCc3ccccc3-c3cc4ccccc4[nH]3)nc(OC3CCN(C)CC3)nc12 [Compound 115]

molecular target: T4, CDK5/p25 (Homo sapiens, UniProt Q00535); assay: Enzymatic assay for CDK5 (FRET based LANCE Ultra kinase assay); type: biochemical; conditions: read-out: CDK5 enzymatic activity (IC50 range)
T4 construct: purchased Invitrogen PR8543B
T4 sequence (Q00535 whole entry): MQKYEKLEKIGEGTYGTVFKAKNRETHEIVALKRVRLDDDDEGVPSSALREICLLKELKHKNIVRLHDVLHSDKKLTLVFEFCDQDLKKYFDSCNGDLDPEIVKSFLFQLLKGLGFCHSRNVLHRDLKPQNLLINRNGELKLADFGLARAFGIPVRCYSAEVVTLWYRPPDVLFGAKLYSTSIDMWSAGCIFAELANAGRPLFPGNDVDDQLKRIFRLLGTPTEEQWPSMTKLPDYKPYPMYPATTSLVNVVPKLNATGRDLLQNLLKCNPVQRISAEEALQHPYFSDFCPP
T4 sequence (Q15078 99-307 partner limits assumed): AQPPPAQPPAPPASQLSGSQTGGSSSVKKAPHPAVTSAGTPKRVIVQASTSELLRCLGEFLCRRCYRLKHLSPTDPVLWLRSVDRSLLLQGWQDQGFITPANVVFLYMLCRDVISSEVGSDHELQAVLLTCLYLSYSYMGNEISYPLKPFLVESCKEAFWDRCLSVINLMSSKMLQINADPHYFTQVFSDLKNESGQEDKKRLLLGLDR
Procedure, shortened: as §2

Row | IC50 [µM] | Compound
31 | 0.1 to 1 | CC(C)c1cnn2c(NCc3cccc4ccc(C5CC5)nc34)nc(N3CCC(N)CC3)nc12 [Compound 71]
32 | > 1 | CC(C)c1cnn2c(NCc3ccccc3-c3nccc4cc(NC(=O)CCCN(C)C)ccc34)nc(N3CCC(N)CC3)nc12 [Compound 92]
33 | 0.1 to 1 | CC(C)c1cnn2c(NCc3ccccc3-c3cc4ccccc4[nH]3)nc(OC3CCN(C)CC3)nc12 [Compound 115]

tested on: H460; assay: Cellular H460 viability assay (CellTiter-Glo, 72 hours); type: cell-based; conditions: Homo sapiens, NCI-H460
Procedure, shortened: as §1

Row | IC50 [µM] | Compound
34 | 1 to 10 | CC(C)c1cnn2c(NCc3cccc4ccc(C5CC5)nc34)nc(N3CCC(N)CC3)nc12 [Compound 71]
35 | < 1 | CC(C)c1cnn2c(NCc3ccccc3-c3cc4cccc(F)c4[nH]3)nc(N3CCC(N)CC3)nc12 [Compound 113]
